Test results reported in article PMC9917735, “Optimization of the Hemolysis Assay for the Assessment of Cytotoxicity” (International Journal of Molecular Sciences, 2023).
Converted amounts (≈) assume the structure as drawn. Read-outs that look alike come from different tables or passages of the source.

Legend:
mouse erythrocytes = conditions: AMPs 100 μM, 1 hour 37 °C, pos. 10% Triton X-100, neg. PBS, 3 x 2 replicates
Description: (§1) Cytotoxicity studies are important during characterization of novel compounds or materials intended for interactions within human biological systems in vivo. Evaluation of the extent to which the compound induces disruption of the membrane of erythrocytes (red blood cells), thereby causing release of cellular content, often constitutes an initial step in such cytotoxicity assessments. The assay used in this context is generally referred to as the hemolysis assay, which has the advantages of being cheap, accessible, and simple to perform. Blood is drawn from a human or an animal, and next, the washed erythrocytes are incubated together with the compound or material under investigation. If the compound causes hemolysis, hemoglobin (along with other cellular constituents) will be released into the supernatant.
(§2) Blood from mice, rats, and rabbits was provided by the Department of Comparative Medicine at Oslo University Hospital (Marianne Aannestad). For mice and rats, the blood was collected from the heart by using 25 G and 21 G needles, respectively, whereas for rabbits, the blood was collected by free bleed through the ear using a yellow neoflon (24 G). All animals were wild type and anesthetized prior to the procedure.
(§3) All blood was collected in Lithium Heparin tubes 4 mL (Greiner Bio-One, Kremsmünster, Austria) or Coagulation sodium citrate 3.2% tubes 3 mL (Greiner Bio-One).
(§4) AMP 2 contained an N-terminal hexanoic acid moiety, whereas all peptides contained amidated C-termini. These three peptides were synthesized by Genscript Inc. (Piscataway, NJ, USA), and stock solutions of 1 mg/mL were made from the purchased powders. […] All peptides were diluted to yield a 100 μM final concentration in the hemolysis assays.
(§5) Triton X-100 (T8787) and Tween-20 (P2287) detergents were purchased from Sigma Aldrich and diluted to obtain 10% stock solutions by weighing (w/v). A sodium Dodecyl Sulfate (SDS) 10% solution was purchased from Invitrogen (Waltham, MA, USA, 15553027). All subsequent dilutions annotated in figures were made from these stocks.
(§6) As soon as possible after phlebotomy, the blood samples were centrifuged at 1700× g for 5 min. The supernatant was removed by aspiration and 2 mL of PBS pH 7 was added. The washing step was repeated three times or until the supernatant was clear. After final aspiration, the remaining pellet was diluted 1:100 in PBS pH 7 to obtain a 1% erythrocyte suspension (or 1:100, 1:50, and 1:20 for assays testing the effect of erythrocyte concentration). For experiments using whole blood, the washing steps were not performed, but downstream experimentation was identical. For experiments performed with 96-well plates, 50 μL of test compound, water, or detergent were mixed with 50 μL of blood sample (1% erythrocyte suspension or whole blood). For experiments using larger volumes, 250 μL of test compound, water, or detergent were mixed with 250 μL blood sample in an Eppendorf tube. Samples were subsequently incubated at 37 °C for 60 min (or 15, 30, 60, 90, or 120 min for assays evaluating the effect of incubation time). After incubation, the plates/tubes were centrifuged at 1700× g for 5 min, and then 50 μL of the supernatants were transferred to transparent, flat-bottom 96-well plates (Anicrin, A013418). Finally, absorption was measured at 405, 530, and 570 nm in a Victor Nivo Multimode microplate reader (Perkin Elmer, Waltham, MA, USA).

rabbit erythrocytes = conditions: AMPs 100 μM, 1 hour 37 °C, pos. 10% Triton X-100, neg. PBS, 3 x 2 replicates
Description: as §1, §2, §3, §4, §5, §6

rabbit whole blood = conditions: for Hemolysis ratio: rabbit whole blood, AMPs 100 μM, 1 hour 37 °C, 3 x 2 replicates
Description: as §1, §2, §3, §4, §5, §6

rat erythrocytes = conditions: AMPs 100 μM, 1 hour 37 °C, pos. 10% Triton X-100, neg. PBS, 3 x 2 replicates
Description: as §1, §2, §3, §4, §5, §6

[1] = tested on: washed human erythrocytes; assay: Flow cytometry of treated erythrocytes with live/dead amine-reactive stain; format: cell-based; conditions: washed human erythrocytes treated 60 minutes, AMPs 100 μM, amine-reactive dye 488, flow cytometry 533/30 nm
Experimental: Briefly, a 1% washed erythrocyte solution was diluted to ~10^5 cells/mL and 0.4% Trypan blue (1:1 ratio) was added before 10 μL of the stained cell suspension was added to the Countess cell counting chamber slide. After a 30 s incubation, the slide was inserted into the instrument for automatic cell counting.
The Countess II automated cell counter (see above) was used to adjust the negative control sample to ~10^5 cells/mL and to subsequently dilute all samples by the same factor. Then, 0.5 μL of live/dead amine-reactive dye 488 (Fisher Scientific, Waltham, MA, USA) was added to 0.5 mL cell suspension and incubated for 30 min protected from light. Subsequently, the samples were washed twice with PBS pH 7 containing 1% bovine serum albumin (BSA), and finally resuspended in PBS pH 7 with 1% BSA. Cells were next counted, and the fluorescence measured using the 533/30 nm filter in an Accuri C6 flow cytometer (BD Biosciences, Franklin Lakes, NJ, USA).

human whole blood = conditions: for Calculated hemolysis ratio: human whole blood, peptides 100 μM, 60 min 37 °C, neg. PBS, 3 x 2 replicates
E. coli = conditions: E. coli
[2] = tested on: washed human erythrocytes; assay: Hemolysis assay, washed human erythrocytes

`CC[C@H](C)[C@H](NC(=O)[C@H](CC(C)C)NC(=O)[C@H](CCC(N)=O)NC(=O)[C@H](CC(C)C)NC(=O)[C@@H](NC(=O)[C@H](C)NC(=O)[C@H](CCCCN)NC(=O)[C@H](CCCCN)NC(=O)[C@H](CCCCN)NC(=O)[C@H](CCCCN)NC(=O)[C@H](CCCCN)NC(=O)[C@@H](NC(=O)[C@H](CCCNC(=N)N)NC(=O)[C@H](CCCCN)NC(=O)[C@@H](NC(=O)[C@H](CC(C)C)NC(=O)[C@H](Cc1ccc(O)cc1)NC(=O)[C@H](CCCNC(=N)N)NC(=O)CNC(=O)[C@H](CC(=O)O)NC(=O)[C@@H](NC(=O)[C@@H](N)CCSC)[C@@H](C)O)[C@@H](C)CC)C(C)C)C(C)C)C(=O)N[C@@H](CC(C)C)C(=O)N[C@@H](CCCCN)C(=O)N[C@@H](Cc1ccccc1)C(=O)N[C@@H](CC(C)C)C(N)=O` [AMP 3] was tested, and the Hemolysis ratio (mouse erythrocytes; Table S4: washed mouse erythrocytes, OD 405 nm) was 77.1 +/- 3.8%, the Hemolysis ratio (mouse erythrocytes; washed mouse erythrocytes, OD 530 nm) was 71.1 +/- 3.2% and the Hemolysis ratio (mouse erythrocytes; washed mouse erythrocytes, OD 570 nm) was 47.7 +/- 2.5%. For the same compound, the Hemolysis ratio (rabbit erythrocytes; Table S4: washed rabbit erythrocytes, OD 405 nm) was 53.2 +/- 7.4%, the Hemolysis ratio (rabbit erythrocytes; washed rabbit erythrocytes, OD 530 nm) was 50.1 +/- 7.7% and the Hemolysis ratio (rabbit erythrocytes; washed rabbit erythrocytes, OD 570 nm) was 52.7 +/- 8.2%. For the same compound, the “Fold decrease of hemolytic effect in rabbit whole blood vs washed rabbit erythrocytes” value (rabbit whole blood; cf. Tables S3 and S4, 100 μM) was 4 fold, the Hemolysis ratio (rabbit whole blood; OD 530 nm, pos. 10% SDS, neg. PBS) was 13.2 +/- 3% and the Hemolysis ratio (rabbit whole blood; OD 570 nm, pos. 10% Triton X-100, neg. PBS) was 13.1 +/- 3.2%. The Hemolysis ratio (rat erythrocytes; Table S4: washed rat erythrocytes, OD 405 nm) was 29.5 +/- 8.2%, the Hemolysis ratio (rat erythrocytes; washed rat erythrocytes, OD 530 nm) was 30.7 +/- 13.1% and the Hemolysis ratio (rat erythrocytes; washed rat erythrocytes, OD 570 nm) was 31.1 +/- 12.7%. The “Fluorescence intensity per cell of remaining intact cells (live/dead stain)” value [1] was “surprisingly high fluorescence intensity measurements per cell”, the Calculated hemolysis ratio (human whole blood; OD 405 nm (signal saturated), pos. 10% SDS) was 15.5 ± 7.1% and the Calculated hemolysis ratio (human whole blood; OD 530 nm, pos. 10% SDS) was 2.7%. For the same compound, the Calculated hemolysis ratio (human whole blood; OD 570 nm, pos. 10% Triton X-100 (table title; text says 10% SDS)) was 3.8%, the “Fold reduction in HR in human whole blood in comparison with washed erythrocytes measured at 405 nm” value (human whole blood; whole blood HR with 10% SDS as positive control (Table 5) vs washed erythrocytes (Table 6), 100 μM) was > 27 fold and the “Minimum inhibitory concentration (E. coli)” value (E. coli) was 4 µM (≈ 12.5 µg/mL). For the same compound, the Calculated hemolysis ratio ([2]; 1% washed human erythrocytes, OD 530 nm, peptides 100 μM, 60 min 37 °C, pos. 10% Triton X-100, neg. PBS, 3 x 2 replicates) was 68.4 ± 15%, the Calculated hemolysis ratio ([2]; 1% washed human erythrocytes, OD 570 nm, peptides 100 μM, 60 min 37 °C, pos. 10% Triton X-100, neg. PBS, 3 x 2 replicates) was 65.7 ± 11.6% and the “Calculated Hemolysis (%)” value ([2]; 2% pooled human erythrocytes, AMPs 100 µM, 60 min 37 °C, 405 nm, pos. 10% Triton X-100, neg. PBS, 3 x 2 replicates) was 41.1 ± 3.2%. For the same compound, the “Calculated Hemolysis (%)” value ([2]; 5% pooled human erythrocytes, AMPs 100 µM, 60 min 37 °C, 405 nm, pos. 10% Triton X-100, neg. PBS, 3 x 2 replicates) was 45.7 ± 8.2%, the Calculated hemolysis ratio ([2]; Table 1: 1% human erythrocytes, 100 µM, 60 min 37 °C, OD 405 nm, pos. 10% Triton X-100, neg. PBS, mean ± SD, 3 experimental x 2 technical replicates) was 37 ± 5.1% and the Calculated hemolysis ratio ([2]; Table 2: pooled blood from all 10 individuals, 1% erythrocytes, AMPs 100 µM, 60 min 37 °C, 405 nm, pos. 10% Triton X, neg. PBS, 3 x 2 replicates) was 45.4 ± 4.8%. For the same compound, the “Calculated Hemolysis (%)” value ([2]; Table 3: 1% pooled human erythrocytes, AMPs 100 µM, 60 min 37 °C, 405 nm, pos. 10% Triton X-100, neg. PBS, 3 x 2 replicates) was 45.4 ± 4.8%, the Calculated hemolysis ratio ([2]; Table 4: incubation 60 min, 37 °C, 1% human erythrocytes, AMPs 100 µM, 405 nm, pos. 10% Triton X-100, neg. PBS, 3 biological x 2 technical replicates) was 64.6 ± 6.8% and the Calculated hemolysis ratio ([2]; Table 6: 1% washed human erythrocytes, OD 405 nm, peptides 100 μM, 60 min 37 °C, pos. 10% Triton X-100, neg. PBS, 3 x 2 replicates) was 73.5 ± 14.4%. The Calculated hemolysis ratio ([2]; human individual # 1, 1% erythrocytes, AMPs 100 µM, 60 min 37 °C, 405 nm, pos. 10% Triton X, neg. PBS, 3 x 2 replicates) was 36.4 ± 5%, the Calculated hemolysis ratio ([2]; human individual # 2, 1% erythrocytes, AMPs 100 µM, 60 min 37 °C, 405 nm, pos. 10% Triton X, neg. PBS, 3 x 2 replicates) was 39.3 ± 6% and the Calculated hemolysis ratio ([2]; human individual # 3, 1% erythrocytes, AMPs 100 µM, 60 min 37 °C, 405 nm, pos. 10% Triton X, neg. PBS, 3 x 2 replicates) was 49.4 ± 8.5%. The Calculated hemolysis ratio ([2]; human individual # 4, 1% erythrocytes, AMPs 100 µM, 60 min 37 °C, 405 nm, pos. 10% Triton X, neg. PBS, 3 x 2 replicates) was 43.6 ± 4.2%, the Calculated hemolysis ratio ([2]; human individual # 5, 1% erythrocytes, AMPs 100 µM, 60 min 37 °C, 405 nm, pos. 10% Triton X, neg. PBS, 3 x 2 replicates) was 38.3 ± 7.3% and the Calculated hemolysis ratio ([2]; human individual # 6, 1% erythrocytes, AMPs 100 µM, 60 min 37 °C, 405 nm, pos. 10% Triton X, neg. PBS, 3 x 2 replicates) was 45.7 ± 6.4%. For the same compound, the Calculated hemolysis ratio ([2]; human individual # 7, 1% erythrocytes, AMPs 100 µM, 60 min 37 °C, 405 nm, pos. 10% Triton X, neg. PBS, 3 x 2 replicates) was 37.7 ± 6.9%, the Calculated hemolysis ratio ([2]; human individual # 8, 1% erythrocytes, AMPs 100 µM, 60 min 37 °C, 405 nm, pos. 10% Triton X, neg. PBS, 3 x 2 replicates) was 45.6 ± 9.2% and the Calculated hemolysis ratio ([2]; human individual # 9, 1% erythrocytes, AMPs 100 µM, 60 min 37 °C, 405 nm, pos. 10% Triton X, neg. PBS, 3 x 2 replicates) was 42.1 ± 4.7%. The Calculated hemolysis ratio ([2]; human individual # 10, 1% erythrocytes, AMPs 100 µM, 60 min 37 °C, 405 nm, pos. 10% Triton X, neg. PBS, 3 x 2 replicates) was 50.3 ± 4.6%, the Calculated hemolysis ratio ([2]; incubated in polypropylene tubes, 1% washed human erythrocytes, peptides 100 μM, 60 min 37 °C, 405 nm, pos. 10% Triton X-100, neg. PBS, 3 x 2 replicates) was 57.5 ± 13.2% and the Calculated hemolysis ratio ([2]; incubated in polystyrene tubes, 1% washed human erythrocytes, peptides 100 μM, 60 min 37 °C, 405 nm, pos. 10% Triton X-100, neg. PBS, 3 x 2 replicates) was 66.7 ± 12.7%. For the same compound, the Calculated hemolysis ratio ([2]; incubation 15 min, 37 °C, 1% human erythrocytes, AMPs 100 µM, 405 nm, pos. 10% Triton X-100, neg. PBS, 3 biological x 2 technical replicates) was 54.8 ± 8.2%, the Calculated hemolysis ratio ([2]; incubation 30 min, 37 °C, 1% human erythrocytes, AMPs 100 µM, 405 nm, pos. 10% Triton X-100, neg. PBS, 3 biological x 2 technical replicates) was 56.6 ± 7.4% and the Calculated hemolysis ratio ([2]; incubation 90 min, 37 °C, 1% human erythrocytes, AMPs 100 µM, 405 nm, pos. 10% Triton X-100, neg. PBS, 3 biological x 2 technical replicates) was 63 ± 4.5%. The Calculated hemolysis ratio ([2]; incubation 120 min, 37 °C, 1% human erythrocytes, AMPs 100 µM, 405 nm, pos. 10% Triton X-100, neg. PBS, 3 biological x 2 technical replicates) was 74.3 ± 21.1%, the “Observed hemolytic properties (qualitative)” value ([2]; reason for choice of the AMPs) was “high” and the Calculated hemolysis ratio ([2]; total incubation volume 100 μL, 1% washed human erythrocytes, peptides 100 μM, 60 min 37 °C, 405 nm, pos. 10% Triton X-100, neg. PBS, 3 x 2 replicates) was 66.7 ± 12.7%. The Calculated hemolysis ratio ([2]; total incubation volume 500 μL, 1% washed human erythrocytes, peptides 100 μM, 60 min 37 °C, 405 nm, pos. 10% Triton X-100, neg. PBS, 3 x 2 replicates) was 72.7 ± 10.4%.
